Non-standard residues stand in square brackets, D forms with d. Residues, ends and D or L forms follow the SMILES beside them. No end group written: not given here.
Columns and labels:
[1] = test system: ES cell-derived cardiomyocytes; test: Interference of compounds with ET-1- or PE-induced hypertrophy of ES cell-derived cardiomyocytes (ANF/BNP RT-PCR); format: cell-based, mouse; conditions: for ANF induction (up-regulation) upon ET-1 stimulation, in words / BNP induction (up-regulation) upon ET-1 stimulation, in words: 100 nM ET-1, 24 h; for ANF induction (up-regulation) upon ET-1 stimulation, in words / BNP induction (up-regulation) upon ET-1 stimulation, in words / ANF induction (up-regulation) upon PE stimulation, in words / BNP induction (up-regulation) upon PE stimulation, in words: compound concentration as in Table 1, summary of Table 1; for ANF induction (up-regulation) upon PE stimulation, in words / BNP induction (up-regulation) upon PE stimulation, in words: 100 μM PE;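 as to all read-outs here: mRNA levels of ANF and BNP quantified from RT-PCR products by densitometry of bands after agarose gel separation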
Description: PCR products were separated by agarose gel electrophoresis and band intensity was analysed using the BioDocAnalyze system (Biometra).
ES cell-derived cardiomyocytes were stimulated with either 100 nM endothelin-1 (ET-1) or 100 μM phenylephrine (PE) in the presence of the compounds indicated. After 24 hours expression of ANF and BNP mRNA was analyzed by RT-PCR.

[2] = test system: ES cell-derived cardiomyocytes; test: Induction of ANF and BNP expression by hypertrophic stimuli (RT-PCR, FIG. 3); format: cell-based, mouse; conditions: suspension culture; 24 h serum starvation, then 24 h stimulation; endothelin-1 100 nM, phenylephrine 200 μM, Angiotensin II 100 nM
Description: Cardiomyocytes differentiated from ES cells were serum-starved for 24 h and subsequently stimulated by endothelin-1 (100 nM; lanes 1, 6, 11), phenylephrine (200 μM; lanes 2, 7, […]) or Angiotensin II (100 nM; lanes 3, 8, 13). Non-stimulated controls were cultured in serum-free medium (lanes 4, 9, 14) or serum-supplemented medium (lanes 5, 10, 15). Subsequently, RNA was extracted and cDNA was synthesized using random hexamer priming. ANF, BNP, and gapdh cDNAs were amplified and PCR products were analyzed by agarose gel electrophoresis. M, size marker. Amplification parameters were as follows. cDNAs were amplified for 32 (ANF and BNP) or 26 (gapdh) PCR cycles consisting each of 1 min at 94° C., 1 min at 56° C., and 1 min at 72° C. The following primers were used: ANF-5′, 5′-[…]-3′ (SEQ ID NO: 14); ANF-3′, 5′-[…]-3′ (SEQ ID NO: 15); BNP-5′, 5′-[…]-3′ (SEQ ID NO: 18); BNP-3′, 5′-[…]-3′ (SEQ ID NO: 19); gapdh-5′, 5′-[…]-3′ (SEQ ID NO: 16); gapdh-3′ 5′-[…]-3′ (SEQ ID NO: 17). Expected PCR product sizes were 468 bp (ANF), 242 bp (BNP), and 349 bp (gapdh).
In a further experiment, the possible induction of an early embryonic gene program upon stimulation by endohelin-1, angiotensin II, or phenylephrine was analysed. To this end, puromycin resistant ES cell-derived cardiomyocytes were obtained as described above; however, after the final […] in puromycin containing medium cells were not transferred to a feeder layer but were kept in suspension culture. Following serum-starvation for 24 h by cultivation in Medium 199, cells were stimulated for 24 h by addition of endothelin-1, phenyleprine, or angiotensin II (Sigma). RNA was extracted and reverse transcribed using standard methods.
Expression of ANF and brain natriuretic peptide (BNP) was analysed by PCR amplification of the respective cDNAs.

[3] = test system: ES cell-derived cardiomyocytes; test: Size of ES cell-derived cardiomyocytes upon hypertrophic stimulation (microscopy, FIG. 1); format: cell-based; conditions: 24 h serum starvation, then 24 h stimulation; endothelin-1 100 nM or phenylephrine 200 μM; on inactivated mouse embryonic fibroblasts
Description: (§1) Hypertrophic cardiomyocytes in that cell culture system are characterized by increased size, increased protein synthesis, increase in sarcomeric assembly and reexpression of a fetal gene program, e.g. enhanced expression of the ANF (atrial natriuretic factor) gene. In order to test if embryonic stem (ES) cell-derived cardiomyocytes display similar features upon stimulation, the following experiments were performed. Green fluorescent cardiomyocytes were generated in accordance with the teachings of in international applications WO99/01552 and WO02/051987 in the following way. ES cells (line D3, ATCC, CRL 1934) that were transfected with a bi-cistronic vector containing the genes for green fluorescent protein (GFP) and puromycin-resistance under the transcriptional control of the […] heavy chain promoter (see WO02/051987), were induced to form aggregates (embryonic bodies, EBs) in the absence of LIF either according to the method in WO99/01552 and WO2/051987, respectively, or as described in European patent application no. 03015401.7. EBs were cultured for 9 days in IMDM (Invitrogen) supplemented with 20% FCS (Invitrogen, batch controlled) at 37° C., 5% CO2 and 95% humidity on 10 cm bacteriological dishes (Greiner). Subsequently, puromycin (Sigma, 2.5 μg/ml) was added to the cell culture medium and cells were cultured for further 10 days. […]

[4] = test system: ES cell-derived cardiomyocytes; test: Sarcomeric organization, immunostaining for sarcomeric alpha-actinin (FIG. 2); format: cell-based, mouse; conditions: 24 h serum starvation, then 24 h stimulation, endothelin-1 100 nM or phenylephrine 200 μM
Description: as §1

[5] = compound 1 μM, stimulus 100 nM ET-1, 24 h, relative to ET-1-stimulated sample without test compound (=100%)
[6] = compound 1 μM, stimulus 100 μM PE, 24 h, relative to PE-stimulated sample without test compound (=100%)
[7] = compound 100 nM, stimulus 100 nM ET-1, 24 h, relative to ET-1-stimulated sample without test compound (=100%)
[8] = compound 100 nM, stimulus 100 μM PE, 24 h, relative to PE-stimulated sample without test compound (=100%)
[9] = compound 10 μM, stimulus 100 nM ET-1, 24 h, relative to ET-1-stimulated sample without test compound (=100%)
[10] = compound 10 μM, stimulus 100 μM PE, 24 h, relative to PE-stimulated sample without test compound (=100%)

| Molecule | ANF induction (up-regulation) upon ET-1 stimulation, in words [1] | BNP induction (up-regulation) upon ET-1 stimulation, in words [1] | ANF induction (up-regulation) upon PE stimulation, in words ([1]; 24 h) | ANF expression [1, 5] | BNP expression [1, 5] | ANF expression [1, 6] | BNP expression [1, 6] | ANF expression compared to control [2] | BNP expression compared to control [2] | other results |
| --- | --- | --- | --- | --- | --- | --- | --- | --- | --- | --- |
| CC(C)C[C@@H]1NC(=O)[C@@H](C(C)C)NC(=O)[C@@H]2CCCN2C(=O)[C@@H](CC(=O)O)NC(=O)[C@@H](Cc2c[nH]c3ccccc23)NC1=O [BQ123] (cyclo(L[dW][dD]P[dV])) | inhibit | inhibit | not | 50% | 60% | 100% (no effect) | 100% (no effect) |  |  |  |
| CCCC[C@@H](NC(=O)[C@@H](Cc1cn(C(=O)OC)c2ccccc12)NC(=O)[C@H](CC(C)(C)C)NC(=O)N1[C@H](C)CCC[C@@H]1C)C(=O)O [BQ788] | inhibit | inhibit | not | 70% | 70% | 100% (no effect) | 100% (no effect) |  |  |  |
| COC(=O)C1=C(C)NC(C)=C(C(=O)OC)C1c1ccccc1[N+](=O)[O-] [Nifedipine] |  |  |  |  |  |  |  |  |  | ANF expression [1, 7]: 100% (no effect); BNP expression [1, 7]: 10%; ANF expression [1, 8]: 20%; BNP expression [1, 8]: 20% |
| COc1cc2nc(N3CCN(C(=O)c4ccco4)CC3)nc(N)c2cc1OC [Prazosin] | no inhibition | no inhibition | inhibition |  |  |  |  |  |  | BNP induction (up-regulation) upon PE stimulation, in words ([1]; 24 h): inhibition; ANF expression [1, 9]: 100% (no effect); BNP expression [1, 9]: 100% (no effect); ANF expression [1, 10]: 40%; BNP expression [1, 10]: 40% |
| CN[C@@H]1C[C@H]2O[C@@](C)([C@@H]1OC)n1c3ccccc3c3c4c(c5c6ccccc6n2c5c31)C(=O)NC4 [Staurosporine] | inhibited | inhibited | inhibited |  |  |  |  |  |  | BNP induction (up-regulation) upon PE stimulation, in words ([1]; 24 h): inhibited; ANF expression [1, 7]: 30%; BNP expression [1, 7]: 30%; ANF expression [1, 8]: 30%; BNP expression [1, 8]: 30% |
| COc1ccc(CCN(C)CCCC(C#N)(c2ccc(OC)c(OC)c2)C(C)C)cc1OC (stereo not drawn) [Verapamil] |  |  |  | 100% (no effect) | 30% | 40% | 20% |  |  |  |
| CNC[C@H](O)c1cccc(O)c1 [phenylephrine] |  |  |  |  |  |  |  | increased | increased | cardiomyocyte size upon stimulation [3]: increase in size; sarcomeric organization upon stimulation [4]: increase in sarcomeric organization |
| Angiotensin II [hypertrophic agonist (Sigma) used as stimulus] |  |  |  |  |  |  |  | modest increase | modest increase |  |
| endothelin-1 (CSCSSLMDKECVYFCHLDIIW; ends and bridges not checked; cysteine pairing not given here; UniProt P05305 53-73, looked up) [hypertrophic agonist (Sigma) used as stimulus] |  |  |  |  |  |  |  | increased | increased | cardiomyocyte size upon stimulation [3]: increase in size; sarcomeric organization upon stimulation [4]: increase in sarcomeric organization |

From patent US9726662B2, “Assay for drug discovery based on in vitro differentiated cells” (AXIOGENESIS AG, priority 2004, dated 2017)
